# Assay results published in patent US8252807B2, “Methods of inhibiting the interaction between S100 and the receptor for advanced glycation end-products” (Board of Regents, The University of Texas System, priority 2007, dated 2012).
# Columns and labels:
# [1] = test system: NFκB promoter activity in BxPC-3 cells; assay: Luciferase assay for NFκB activity, BxPC-3; type: cell-based; conditions: for basal NFκB activity in BxPC-3 cells, mean: 5 hours, 0 μM mean=1.4×10^6
# SW480 cells = assay: SW480 colon cancer cell invasion (matrigel transwell); type: cell-based; conditions: cromolyn 10 μM and 100 μM, 24 hours
# Description: SW480 cells were plated on top of a layer of matrigel in a Boyden type chamber (transwell). Media containing 5% FBS was placed in the lower well and the cells were allowed to invade the matrigel layer for 24 hours in the presence of different concentrations of cromolyn.
# BxPC-3 cells [2] = assay: BxPC-3 cell viability, 72 hours; type: cell-based
# Description: BxPC-3 cells were plated at 1.0×10^3 cells/well and treated with 0 μM, 1 μM, 10 μM, and 100 μM of cromolyn or C5 alone or in combination with gemcitabine 1 μM and cell viability was analyzed after 72 hours. Two-tailed two-sample (unpaired) Student's t-tests were used to determine P values. […] BxPC-3 cells were plated at 1.0×10^3 cells/well and treated with either 100 μM of cromolyn or 1 μM C5 alone or in combination with gemcitabine (1 μM) and cell viability was analyzed after 72 hours.
# SKOV3 ovarian cells = assay: SKOV3 ovarian cell proliferation; type: cell-based; conditions: 24, 48 and 72 hours
# Description: SKOV3 ovarian cells were cultured for up to three days in the presence of different concentrations of cromolyn, and cell proliferation was analyzed at 24, 48, and 72 hours. *, P<0.05.
# PC3 prostate cells = assay: PC3 prostate cell viability with taxol; type: cell-based; conditions: taxol 100 nM, cromolyn 10 μM, 48 hours
# Description: PC3 prostate cells were plated and treated with taxol (100 nM) either in the presence or absence of cromolyn (10 μM) for 48 hours. Cell viability was analyzed after 48 hours. *, P<0.05.
# BxPC-3 cells [3] = assay: Matrigel invasion assay, BxPC-3; type: cell-based; conditions: 24 hours; for BxPC-3 cells invaded, mean: 0 μM mean=19.3%
# Description: FIGS. 2A-2D show the effect of cromolyn on pancreatic cancer cell invasion. Panc-1 and BxPC-3 cells were plated in Bio-coat matrigel and control chambers and cultured in serum-free culture media. After 24 hours non-invaded cells in the upper chamber were removed, and cells that invaded onto the lower surface of the membrane were counted from five adjacent fields. […] Data are expressed as the percent invasion through the matrigel matrix and membrane relative to migration through the control membrane. Means and 95% confidence intervals from three independent experiments performed in triplicate are shown. Two-tailed two-sample (unpaired) Student's t-tests were used to determine P values. Panc-1 and BxPC-3 cells were seeded in BIOCOAT matrigel invasion chambers and in control chambers without matrigel (Becton-Dickinson, Bedford, Mass.) according to the manufacturer's protocol. Panc-1 cells were seeded with S100P (100 nM) with or without cromolyn (100 μM), and BxPC-3 cells were seeded with or without cromolyn (1-100 μM). Briefly, 2.0×10^5 cells in 300 μL top solution (serum-free media) were added to each chamber and allowed to invade matrigel for 24 hours at 37° C. in a 5% CO2 atmosphere. The non-invading cells on the upper surface of membrane were removed from the chambers with a cotton swab, and the invading cells on the lower surface of the membrane were fixed and stained using a Diff-Quick stain kit (Becton Dickinson, Bedford, Mass.). After two washes with water, the chambers were allowed to air dry. The numbers of invading cells in five adjacent microscope fields per membrane were counted at 20× magnification to obtain the average number of cells per field. Data are expressed as the percent invasion through the matrigel matrix and membrane relative to the migration through the control membrane. The assays were performed three times.
# [4] = test system: S100s A1, B, A12, and A13; conditions: previously found; cited from earlier work
# [5] = background statement; cited from earlier work
# [6] = test system: NFκB promoter activity in Panc-1 cells; assay: Luciferase assay for NFκB activity, Panc-1; type: cell-based
# Description: FIGS. 3A, 3B, and 3C show the effect of cromolyn on S100P stimulated NFκB promoter activity in pancreatic cancer cells in vitro and in vivo. Panc-1 and BxPC-3 pancreatic cancer cell lines stably expressing an NFκB luciferase reporter were examined for the effects of S100P and cromolyn. […] Means and 95% confidence intervals are shown for three independent experiments performed in triplicate. *, P=0.022, †, P<0.001, and ‡, P<0.001 versus control; #, P=0.005 versus 100 nM S100P alone. […] Means and 95% confidence intervals are shown for three independent experiments performed in triplicate. *, P=0.003, †, P<0.001 versus control. […] After 1 week, tumor growth was assessed and NFκB activity was analyzed using an IVIS system (Xenogen Corp., Alameda, Calif.) after injecting mice with D-luciferin (150 mg per kg body weight) (0 time point). The mice were treated with cromolyn (5 mg per kg body weight by intraperitoneal injection), and NFκB luciferase activity was analyzed again at 24 and 48 hours. *, P=0.005 versus control. Means and 95% confidence intervals are shown for two independent experiments (n=4 mice per group). Two-tailed two-sample (unpaired for in vitro and paired for in vivo studies) Student's t-tests were used to determine P values.
# To study pancreatic cancer cell NFκB activity, a lentivirus NFκB luciferase reporter gene construct was developed. The NFκB luciferase reporter gene was excised and isolated from the pNF-κB-Luc Vector (Clonetec, Mountain View, Calif.) and cloned into the lentiviral vector FG9 (Gift from Dr. Xiao-Feng Qin, Dept. of Immunology, M.D. Anderson Cancer Center replacing the CMV/LTR and UBiC promoters, to form Lenti-NFκB-Luc. Lentiviral NFκB vector were co-transfected with packaging constructs pRSVREV, pMDLg/pRRE, and the VSV-G expression plasmid pHCMVG, and lentivirus was produced in 293T cells by the calcium transfection method, as previously described in Qin, et al., Inhibiting HIV-1 infection in human T cells by lentiviral-mediated delivery of small interfering RNA against CCR5; Proc. Natl. Acad. Sci. U.S.A. 2003 Jan. 7; 100(1):183-8. […] Functional validation of NFκB reporter activity was conducted in vitro using TNF-α (20 ng/mL, Sigma, St. Louis, Mo.) as a positive control.
# BxPC-3 and Panc-1 cells stably expressing a Lenti-NFkB-luc reporter construct were treated with S100P, cromolyn, or the combination for 5 hours. D-luciferin (150 μg/mL) was added to the cells, and luciferase activity was measured using an IVIS bioluminescence system (Xenogen Co. Alameda, Calif.). Each experiment was conducted three times in triplicate.
smiles,measurement,setting,value
"O=C(O)c1cc(=O)c2c(OCC(O)COc3cccc4oc(C(=O)O)cc(=O)c34)cccc2o1 [cromolyn, disodium 1,3-bis[(2′-carboxylatochromon-5′-yl)oxy]-2-hydroxypropane]","basal NFκB activity in BxPC-3 cells, difference versus 0 μM",[1]; cromolyn 10 μM,4.7×10^5 photons/sec
same,"basal NFκB activity in BxPC-3 cells, mean",[1]; cromolyn 10 μM,9.4×10^5 photons/sec
same,"basal NFκB activity in BxPC-3 cells, difference versus 0 μM",[1]; cromolyn 100 μM,5.9×10^5 photons/sec
same,"basal NFκB activity in BxPC-3 cells, mean",[1]; cromolyn 100 μM,8.2×10^5 photons/sec
same,invasiveness of SW480 cells,SW480 cells,reduced the invasiveness
same,BxPC-3 cell viability,"BxPC-3 cells [2]; 1-100 μM, alone or with gemcitabine 1 μM",inhibit BxPC-3 cell viability
same,concentration giving the same level of cell reduction in combination with gemcitabine,BxPC-3 cells [2]; with gemcitabine 1 μM,100 µM
same,growth of SKOV3 cells,SKOV3 ovarian cells,reduced the growth
same,cell killing effect of taxol on prostate cancer cells,PC3 prostate cells,increased the cell killing effect of taxol
same,"BxPC-3 cells invaded, difference versus 0 μM",BxPC-3 cells [3]; cromolyn 10 μM,10.0%
same,"BxPC-3 cells invaded, mean",BxPC-3 cells [3]; cromolyn 10 μM,9.3%
same,"BxPC-3 cells invaded, difference versus 0 μM",BxPC-3 cells [3]; cromolyn 100 μM,11.7%
same,"BxPC-3 cells invaded, mean",BxPC-3 cells [3]; cromolyn 100 μM,7.7%
same,binding to S100 proteins,[4],bind
same,permeability to cells,[5],impermeant to cells
same,"NFκB promoter activity in Panc-1 cells, mean","[6]; S100P 100 nM + cromolyn 100 μM, 5 hours, S100P alone mean=14460",7360 photons/sec
same,"NFκB promoter activity in Panc-1 cells, difference S100P alone versus combination with cromolyn","[6]; S100P 100 nM, cromolyn 100 μM",7100 photons/sec
same,basal NFκB activity in Panc-1 cells,"[6]; cromolyn 100 μM, no S100P, 5 hours",no effect
